Patent US8802439B2, “Methods for enhancing infectivity of retroviruses” (priority 2009, dated 2014)
“Also recorded” adds a separate entry of the source.

Tests used:
HCV = HCV infectivity titer of supernatants from persistently infected HUH-7 cells; format: cell-based; details: PiB 16 μM and 8 μM, 1 hour pre-treatment plus 9 hours at 37° C.
Description: (§1) Cells persistently infected with HCV were treated with vehicle (DMSO), an MTP inhibitor (BMS-200150) capable of inhibiting HCV secretion, or with two doses of PiB (16 μM and 8 μM). After 1 hour of pre-treatment at 37° C., cells were washed with warm PBS and further incubated in normal medium containing the same drugs for an additional 9 hours at 37° C. Cell supernatants containing infectious HCV were collected for infectivity titer determination.
as §1, with “Infection assays for HCV: Persistently” for “Cells persistently”, “cells” for “with HCV”, “inhibitors” for “drugs”, “determination. […] Note that Pin1 is able to block HIV-1 in the HUH-7 cell line used to propagate HCV.” for “determination.”
Persistently infected HUH-7 cells were treated with solvent DMSO (circles), or increasing concentrations of PiB (squares). After 1 hour of pre-treatment cells were washed and further incubated in normal medium containing the same inhibitors for an additional 9 hours at 37° C. Cell supernatants containing infectious HCV were collected for infectivity titer determination.

Pin1 PPIase = Pin1 PPIase (Homo sapiens, UniProt Q13526); details: Uchida et al. 2003; cited from earlier work
HIV-1 [1] = test: Single-round infectivity on TZM-bl cells of HIV-1 produced in Pin1-inhibited 293T cells (Galacton-Star galactosidase assay); format: cell-based
Source text: Viral inocula from transfections above were normalized to equal virion particle number via p24 ELISA and used to infect target CD4^+ HeLa cells (1×10^5 TZM-bl). Infectivity was scored using the Galacton-Star enzymatic galactosidase activity assay, and infectivity quantified by relative […] units (R.F.U).
(§2) Plasmids: Laboratory-adapted provirus NL4.3, and the CypA-independent NL4.3 CAi2 were kindly provided by Akio Adachi (Department of Virology, Institute of Health Biosciences, The University of Tokushima Graduate School, JAPAN). Mutant R9G89V was a gift from P. Gallay (TSR1) as were NL4.3-GFP and SIV-GFP (originally Dana Gabuzda, Dana Farber Cancer Institute). NL4.3 A92E was kindly provided by W. Phares (Genetics Unit, Novartis Forschungsinstitut, Vienna, Austria). R9Δgp160 plasmid clone was kindly provided by C. Aiken (Vanderbilt Medical Center). VSV-G (CMV-VSV-G) was kindly provided by D. Trono (École Polytechnique Fédérale de Lausanne). Both bMLV-GFP and nMLV-GFP in the form of pCIG3-N, pCIG3-B as well as pCNCG were kindly provided by J. Stoye (National Institute for Medical Research, UK). Isomerase mutant Pin1 (pFLAG-Pin1R68,69A) and WW-domain mutant Pin1 (pFLAG-Pin1 W34A) were constructed by site-directed mutagenesis. Pseudotyping experiments were performed using DNA constructs encoding the VSV-G generously provided by D. Trono. Human Pin1 was cloned into pFLAG (Sigma-Aldrich) making pFLAG-Pin1. Viruses were produced by transfection of 293T cells using either GeneJuice (Novagen) or calcium phosphate. […] All viruses were harvested 24-48 hours post-transfection and filtered (0.2-μM filter, Steriflip Millipore). HIV-1 viruses were normalized by p24 ELISA (Alliance HIV-1 p24 Antigen ELISA Kit, Perkin Elmer), and/or were normalized via the EnzChek® Reverse Transcriptase Assay Kit (E-22064) (Molecular Probes).
Infection assays for retrovirus: Single-round infections: CD4^+ TZM-bl 100,000 cells/well/mL were seeded onto 24-well plates 24 hours prior to infection. These cells were infected in quadruplicate to 24-well plates. Infectivity was scored using an enzymatic galactosidase activity assay. Specifically, infected TZM-bl cells were washed and lysed, and 20 μl of lysate was transferred to a 96-well plate for detecting β-galactosidase activity. 100 μl of reaction buffer Galacton-Star substrate (Applied Biosystems, Bedford, Mass.), diluted 1:50, was added to 20 μl of lysate, and the light emission was measured over 1 second in a microplate luminometer after 30 minutes incubation. For human PBMC infections, cells were exposed to 10 ng of wild-type virus for 6 hours, washed, and split into two flasks: one with 10 μM PiB added on day 0 and 3, and one without PiB. Replication was monitored by p24 ELISA. For measuring infectivity of GFP-virus, 50,000 TZMb1, sMAGI, OMK, Vero, BSC-1 and CV-1 cells/well/mL were seeded onto 6-well plates respectively 24 hours prior to infection. Viruses were used to infect in duplicate wells, incubated for 48 hours, washed with PBS, trypsinized, fixed in 1% formaldehyde and subsequently analyzed by fluorescence-activated cell sorting (FACS) for percentage cells infected.
To examine a potential role for Pin1 in HIV-1 replication we used two inhibitors of Pin1: juglone and PiB. […] 293T cells were transfected with a proviral construct encoding wild-type HIV-1 in the presence or absence of PiB or juglone.

[2] = test system: other prolyl isomerases such as CypA or FKBP; details: cited from earlier work
HIV-1 [3] = test: HIV-1 viral production in 293T producer cells, p24 ELISA of supernatants; format: cell-based; details: 293T cells transfected with NL4.3; 2.0 μM juglone, 2.0 μM or 10.0 μM PiB
Source text: as §2, with “HIV-1 viruses were normalized by p24 ELISA (Alliance HIV-1 p24 Antigen ELISA Kit, Perkin Elmer), and/or were normalized via the EnzChek® Reverse Transcriptase Assay Kit (E-22064) (Molecular Probes).” left out

E. coli PPIase, parvulin = E. coli PPIase, parvulin (Escherichia coli, UniProt P0A9L5); details: covalent modification of two cysteine residues, slow process; cited from earlier work
E. coli PPIase, parvulin, sequence (P0A9L5 whole entry): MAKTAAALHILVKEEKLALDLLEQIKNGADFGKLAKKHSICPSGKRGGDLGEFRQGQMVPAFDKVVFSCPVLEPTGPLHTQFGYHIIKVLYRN

Pin1 PPIase, sequence (Q13526 whole entry): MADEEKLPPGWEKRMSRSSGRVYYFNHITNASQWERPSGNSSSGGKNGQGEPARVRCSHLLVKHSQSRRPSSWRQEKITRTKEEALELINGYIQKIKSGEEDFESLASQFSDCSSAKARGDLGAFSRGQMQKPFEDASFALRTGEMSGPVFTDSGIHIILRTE

Compound: O=C1c2ccccc2CN1C1CCN(CCC(c2ccccc2)c2ccccc2)CC1 [BMS-200150]
- infectious HCV in cell supernatants (infectivity titer) (HCV): virtual absence of particles

Compound: CN1C(=O)c2ccc3c4c(ccc(c24)C1=O)C(=O)N(C)C3=O [PiA, 2,7-dimethylbenzo[lmn][3,8]phenanthroline-1,3,6,8 (2H,7H)-tetrone]
- inhibition of the PPIase activity of Pin1 (Pin1 PPIase): potently inhibit

Compound: CCOC(=O)CN1C(=O)c2ccc3c4ccc5c6c(ccc(c7ccc(c2c37)C1=O)c64)C(=O)N(CC(=O)OCC)C5=O [PiJ, diethyl-1,3,8,10-tetrahydro-1,3,8,10-tetraoxoanthra[2,1,9-def:6,5,10-d′e′f′]diisoquinoline-2,9-diacetate]
- inhibition of the PPIase activity of Pin1 (Pin1 PPIase): potently inhibit

Compound: O=C1C=CC(=O)c2c(O)cccc21 [juglone, 5-hydroxy-1,4-naphthoquinone]
- boost of infectivity (HIV-1 [1]): 2 fold
- inhibition of other PPIase families (CypA, FKBP) [2]: do not inhibit; also recorded: not affected
- viral production (HIV-1 capsid in viral supernatants by p24 ELISA) (HIV-1 [3]): Neither inhibitor influences viral production; also recorded: do not alter viral production
- inactivation of E. coli parvulin (E. coli PPIase, parvulin): inactivates
